From PubChem BioAssay (NCI)
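Cultured in 96-well plates, cells were exposed to test compound for 48 hours across five concentrations. TGI is the concentration that stops growth completely.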

Key:
Test in all cases: NCI tumour cell line growth inhibition, 48 h
[1] = system: 786-0 renal
[2] = system: A549 NSCLC
[3] = system: ACHN renal
[4] = system: BT-549 breast
[5] = system: CCRF-CEM leukemia
[6] = system: COLO 205 colon
[7] = system: DU-145 prostate
[8] = system: EKVX NSCLC
[9] = system: HCC-2998 colon
[10] = system: HCT-116 colon
[11] = system: HCT-15 colon
[12] = system: HOP-62 NSCLC
[13] = system: HOP-92 NSCLC
[14] = system: HS 578T breast
[15] = system: HT29 colon
[16] = system: IGROV1 ovarian
[17] = system: K-562 leukemia
[18] = system: KM12 colon
[19] = system: M14 melanoma
[20] = system: MALME-3M melanoma
[21] = system: MCF7 breast
[22] = system: MDA-MB-231 breast
[23] = system: MDA-MB-435
[24] = system: MDA-N
[25] = system: MOLT-4 leukemia
[26] = system: NCI-H226 lung
[27] = system: NCI-H23 lung
[28] = system: NCI-H460 lung
[29] = system: NCI-H522 lung
[30] = system: NCI/ADR-RES ovarian
[31] = system: OVCAR-3 ovarian
[32] = system: OVCAR-4 ovarian
[33] = system: OVCAR-5 ovarian
[34] = system: OVCAR-8 ovarian
[35] = system: PC-3 prostate
[36] = system: RPMI-8226 leukemia
[37] = system: SF-268 CNS
[38] = system: SF-295 CNS
[39] = system: SK-MEL-2 melanoma
[40] = system: SK-MEL-28 melanoma
[41] = system: SK-MEL-5 melanoma
[42] = system: SK-OV-3 ovarian
[43] = system: SN12C renal
[44] = system: SNB-19 CNS
[45] = system: SR leukemia
[46] = system: SW-620 colon
[47] = system: T-47D breast
[48] = system: TK-10 renal
[49] = system: U251 CNS
[50] = system: UACC-62 melanoma
[51] = system: UO-31 renal
[52] = system: CAKI-1 renal
[53] = system: HL-60(TB) leukemia
[54] = system: LOX IMVI melanoma
[55] = system: RXF 393 renal
[56] = system: SNB-75 CNS
[57] = system: UACC-257 melanoma
[58] = system: A498 renal
[59] = system: SF-539 CNS

For `COc1ccc(-n2sc3ncc(C)cc3c2=O)cc1`, the TGI [1] was 31 µM, the TGI [2] was 44.7 µM and the TGI [3] was 32.3 µM. For the same compound, the TGI [4] was 35.6 µM, the TGI [5] was 37.5 µM and the TGI [6] was 29.5 µM. It also gave a TGI [7] of 44 µM, a TGI [8] of 33.6 µM and a TGI [9] of over 100 µM. The TGI [10] was 34.5 µM, the TGI [11] was 38.7 µM and the TGI [12] was 45.9 µM. For the same compound, the TGI [13] was 42.1 µM, the TGI [14] was 83.7 µM and the TGI [15] was 31.9 µM. It also gave a TGI [16] of over 100 µM, a TGI [17] of over 100 µM and a TGI [18] of 29.6 µM. For the same compound, the TGI [19] was 32.7 µM, the TGI [20] was 38.5 µM and the TGI [21] was 44.2 µM. It also gave a TGI [22] of 30.7 µM, a TGI [23] of 40.5 µM and a TGI [24] of 31.8 µM. For the same compound, the TGI [25] was over 100 µM, the TGI [26] was 84.6 µM and the TGI [27] was 57.7 µM. For the same compound, the TGI [28] was over 100 µM, the TGI [29] was 45.8 µM and the TGI [30] was 64.4 µM. It also gave a TGI [31] of 32.4 µM, a TGI [32] of over 100 µM and a TGI [33] of 34.7 µM. For the same compound, the TGI [34] was 35.2 µM, the TGI [35] was 29 µM and the TGI [36] was 67.2 µM. The TGI [37] was 40.6 µM, the TGI [38] was over 100 µM and the TGI [39] was 52.7 µM. For the same compound, the TGI [40] was 73 µM, the TGI [41] was 26 µM and the TGI [42] was over 100 µM. For the same compound, the TGI [43] was 35.4 µM, the TGI [44] was over 100 µM and the TGI [45] was over 100 µM. It also gave a TGI [46] of 89.6 µM, a TGI [47] of 39.4 µM and a TGI [48] of 33.2 µM. The TGI [49] was 52.6 µM, the TGI [50] was 34.9 µM and the TGI [51] was 31.4 µM.
For `CCCCCC(=O)n1[nH]c(=O)n(-c2ccc(OC)cc2)c1=O`, the TGI [1] was over 100 µM, the TGI [2] was over 100 µM and the TGI [3] was over 100 µM. For the same compound, the TGI [4] was over 100 µM, the TGI [52] was over 100 µM and the TGI [5] was over 100 µM. For the same compound, the TGI [6] was over 100 µM, the TGI [7] was over 100 µM and the TGI [8] was over 100 µM. It also gave a TGI [9] of over 100 µM, a TGI [10] of over 100 µM and a TGI [11] of over 100 µM. It also gave a TGI [53] of over 100 µM, a TGI [12] of over 100 µM and a TGI [14] of over 100 µM. For the same compound, the TGI [15] was over 100 µM, the TGI [16] was over 100 µM and the TGI [17] was over 100 µM. It also gave a TGI [18] of over 100 µM, a TGI [54] of over 100 µM and a TGI [19] of over 100 µM. It also gave a TGI [20] of over 100 µM, a TGI [21] of over 100 µM and a TGI [22] of over 100 µM. It also gave a TGI [23] of over 100 µM, a TGI [24] of over 100 µM and a TGI [25] of over 100 µM. It also gave a TGI [26] of over 100 µM, a TGI [27] of over 100 µM and a TGI [28] of over 100 µM. The TGI [29] was over 100 µM, the TGI [30] was over 100 µM and the TGI [31] was over 100 µM. For the same compound, the TGI [32] was over 100 µM, the TGI [33] was over 100 µM and the TGI [34] was over 100 µM. It also gave a TGI [35] of over 100 µM, a TGI [36] of over 100 µM and a TGI [55] of over 100 µM. The TGI [37] was over 100 µM, the TGI [38] was over 100 µM and the TGI [39] was over 100 µM. The TGI [40] was over 100 µM, the TGI [41] was over 100 µM and the TGI [42] was over 100 µM. For the same compound, the TGI [43] was over 100 µM, the TGI [44] was over 100 µM and the TGI [56] was over 100 µM. It also gave a TGI [45] of over 100 µM, a TGI [46] of over 100 µM and a TGI [47] of over 100 µM. The TGI [48] was over 100 µM, the TGI [49] was over 100 µM and the TGI [57] was over 100 µM. The TGI [50] was over 100 µM and the TGI [51] was over 100 µM.
With `COc1ccc(-c2c3ccccc3c(-c3ccc(OCCBr)cc3)c3ccccc23)cc1` the TGI [1] was over 100 µM, the TGI [58] was over 100 µM and the TGI [2] was over 100 µM. The TGI [3] was over 100 µM, the TGI [4] was over 100 µM and the TGI [52] was over 100 µM. The TGI [5] was over 100 µM, the TGI [6] was over 100 µM and the TGI [7] was over 100 µM. For the same compound, the TGI [8] was over 100 µM, the TGI [9] was over 100 µM and the TGI [10] was over 100 µM. The TGI [11] was over 100 µM, the TGI [53] was over 100 µM and the TGI [12] was over 100 µM. For the same compound, the TGI [14] was over 100 µM, the TGI [15] was over 100 µM and the TGI [16] was over 100 µM. For the same compound, the TGI [18] was over 100 µM, the TGI [54] was over 100 µM and the TGI [19] was over 100 µM. It also gave a TGI [20] of over 100 µM, a TGI [21] of over 100 µM and a TGI [22] of over 100 µM. The TGI [23] was over 100 µM, the TGI [24] was over 100 µM and the TGI [25] was over 100 µM. For the same compound, the TGI [26] was over 100 µM, the TGI [27] was over 100 µM and the TGI [28] was over 100 µM. It also gave a TGI [29] of over 100 µM, a TGI [30] of over 100 µM and a TGI [31] of over 100 µM. The TGI [32] was over 100 µM, the TGI [33] was over 100 µM and the TGI [34] was over 100 µM. It also gave a TGI [35] of over 100 µM, a TGI [36] of over 100 µM and a TGI [55] of over 100 µM. It also gave a TGI [37] of over 100 µM, a TGI [38] of over 100 µM and a TGI [59] of over 100 µM. For the same compound, the TGI [39] was over 100 µM, the TGI [40] was over 100 µM and the TGI [41] was over 100 µM. The TGI [42] was over 100 µM, the TGI [43] was over 100 µM and the TGI [44] was over 100 µM. It also gave a TGI [56] of over 100 µM, a TGI [45] of over 100 µM and a TGI [46] of over 100 µM. For the same compound, the TGI [47] was over 100 µM, the TGI [48] was over 100 µM and the TGI [49] was over 100 µM. The TGI [57] was over 100 µM, the TGI [50] was over 100 µM and the TGI [51] was 1.61 µM.
